Where two headings read alike, the source gives them in different places.
Key:
[1] = molecular target: T1, H-2D^b (Mus musculus, UniProt P01899); settings: MHC allele H-2D^b, cited from earlier work
T1 sequence (P01899 25-362): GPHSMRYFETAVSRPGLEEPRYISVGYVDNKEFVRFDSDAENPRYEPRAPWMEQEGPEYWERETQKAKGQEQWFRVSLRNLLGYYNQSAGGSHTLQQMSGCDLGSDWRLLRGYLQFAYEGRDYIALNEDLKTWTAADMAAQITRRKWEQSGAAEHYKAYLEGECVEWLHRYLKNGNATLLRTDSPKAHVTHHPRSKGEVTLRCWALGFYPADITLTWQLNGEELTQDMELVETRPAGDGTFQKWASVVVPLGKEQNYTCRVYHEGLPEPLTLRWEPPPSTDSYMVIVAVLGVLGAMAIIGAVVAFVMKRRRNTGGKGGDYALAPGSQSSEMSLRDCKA
T1 sequence (P01887 21-119 partner): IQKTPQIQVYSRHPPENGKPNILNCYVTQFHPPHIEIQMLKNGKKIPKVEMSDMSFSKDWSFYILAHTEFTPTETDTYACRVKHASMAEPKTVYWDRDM

[2] = molecular target: T2, H-2K^b (Mus musculus, UniProt P01901); settings: MHC allele H-2K^b, cited from earlier work
T2 sequence (P01901 22-369): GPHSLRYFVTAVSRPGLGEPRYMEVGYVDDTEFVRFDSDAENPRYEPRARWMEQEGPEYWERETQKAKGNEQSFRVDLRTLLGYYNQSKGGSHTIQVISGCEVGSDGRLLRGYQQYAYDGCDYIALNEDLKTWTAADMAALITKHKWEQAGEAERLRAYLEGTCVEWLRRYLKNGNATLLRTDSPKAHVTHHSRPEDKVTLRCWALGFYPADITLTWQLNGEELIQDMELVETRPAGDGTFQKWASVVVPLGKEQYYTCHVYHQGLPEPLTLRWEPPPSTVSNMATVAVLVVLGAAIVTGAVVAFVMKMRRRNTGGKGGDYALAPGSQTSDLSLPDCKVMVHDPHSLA
T2 sequence (P01887 21-119 partner): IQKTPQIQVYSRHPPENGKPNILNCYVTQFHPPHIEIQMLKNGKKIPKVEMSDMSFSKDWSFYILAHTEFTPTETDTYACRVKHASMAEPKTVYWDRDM

[3] = molecular target: PD-L1 protein (Abcam, ab130039) (UniProt Q9EP73); assay: competitive ELISA: PD-L1-coated plate, displacement of mouse PD-1-biotin
PD-L1 protein (Abcam, ab130039) (UniProt Q9EP73), sequence (Q9EP73 19-238 limits assumed): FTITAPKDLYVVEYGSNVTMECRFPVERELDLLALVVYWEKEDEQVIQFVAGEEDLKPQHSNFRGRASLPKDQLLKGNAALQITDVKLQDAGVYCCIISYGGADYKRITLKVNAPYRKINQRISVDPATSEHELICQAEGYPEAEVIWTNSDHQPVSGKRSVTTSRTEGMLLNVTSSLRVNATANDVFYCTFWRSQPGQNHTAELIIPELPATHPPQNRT

[4] = test system: T-cells from healthy PBMCs with allogeneic mature DCs; format: cell-based, human; settings: purified ihPDL1 at 0.01 μg/mL, 0.1 μg/mL, or 1 μg/mL
[5] = test system: K562/PD-L1, U251/PD-L1, H226/PD-L1 target cells; assay: ADCC assay (Jurkat effector cells); format: cell-based, human; settings: any of the PD-L1-expressed target cell lines
Experimental: ADCC assay: Purified ihPDL1 was analyzed with ADCC kit according to the manufacturer's instruction (Promega, Madison, Wis.).

[6] = molecular target: PD-L1 (Homo sapiens, UniProt Q9NZQ7); assay: Surface plasmon resonance (SPR)-binding assay; settings: immobilized PD-L1-His tag protein
PD-L1 (Homo sapiens, UniProt Q9NZQ7), sequence (Q9NZQ7 19-290): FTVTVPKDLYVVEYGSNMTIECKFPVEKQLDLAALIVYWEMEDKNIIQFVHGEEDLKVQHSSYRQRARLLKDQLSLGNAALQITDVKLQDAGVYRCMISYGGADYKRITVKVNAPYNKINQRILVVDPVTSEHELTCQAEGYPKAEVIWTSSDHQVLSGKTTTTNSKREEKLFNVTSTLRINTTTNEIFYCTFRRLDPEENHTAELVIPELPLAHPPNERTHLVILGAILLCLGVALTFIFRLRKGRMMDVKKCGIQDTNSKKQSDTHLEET
Experimental: Surface plasmon resonance (SPR)-binding assays: The assays were carried out at 25° C. using a Biacore T100 (USC NanoBiophysics Center). CMS sensor chips were activated by a 7 min injection of a 1:1 mixture of N-hydroxysuccinimide and 1-ethyl-3-(3-dimethylaminopropyl) carbodiimide hydrochloride at a flow rate of 10 μL/min. The PD-L1-His tag protein was prepared at a concentration of 10 μg/mL in 10 mM acetate buffer, pH 4.0, and immobilized to the sensor chips by amine linkage, with the typical immobilization levels being 100 response units. For blocking sensor chips, 70 μL of 1M ethanolamine-HCl buffer, pH 8.5, was injected and the chips were further washed with 10 μL of 10 mM glycine-HCl buffer, pH 1.5. For analyzing the binding and equilibrium affinity of ihPDL1 or a-PD-L1 antibody (biolegend, cat 329702), 5 serial dilutions of ihPDL1 starting from 200 μg/mL, or 6 serial dilutions of α-PD-L1 antibody starting from 100 μg/mL were injected at a flow rate of 30 μL/min over the sensor chips coupled with PD-L1 protein. The data sets were analyzed using a model for 1:1 binding.

[7] = molecular target: T3, PD-1/PD-L1 interaction (Homo sapiens, UniProt Q9NZQ7); format: binding; settings: purified ihPDL1 at the tested concentrations
T3 construct: purchased BPS Bioscience
T3 sequence (Q9NZQ7 19-238 limits assumed): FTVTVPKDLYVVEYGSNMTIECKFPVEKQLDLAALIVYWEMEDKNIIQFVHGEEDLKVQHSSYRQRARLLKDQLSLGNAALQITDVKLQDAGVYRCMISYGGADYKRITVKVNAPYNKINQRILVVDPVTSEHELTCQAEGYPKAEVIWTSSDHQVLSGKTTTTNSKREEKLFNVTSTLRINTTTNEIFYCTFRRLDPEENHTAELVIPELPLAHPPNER

[8] = molecular target: T4, PD-L1^+ tumor cells (Homo sapiens, UniProt Q9NZQ7); format: cell-based; settings: PD-L1-transduced 293T or K562, IFN-γ pre-stimulated H226 or U251
T4 construct: endogenous in cells; host or cells: IFN-γ-stimulated U251 or H226
T4 sequence (Q9NZQ7 19-290): as the sequence (Q9NZQ7 19-290) above

[9] = molecular target: PD-L1 protein (Abcam, ab130039) (UniProt Q9EP73 19-238); assay: competitive ELISA: PD-L1-coated plate, displacement of mouse PD-1-biotin
PD-L1 protein (Abcam, ab130039) (UniProt Q9EP73 19-238), sequence (Q9EP73 19-238 limits assumed): as the sequence (Q9EP73 19-238 limits assumed) above

[10] = test system: PD-1+ CD8+ T cells; settings: purified iPDL1 in comparison to control IgG
Excerpt: (FIG. 7I) PD-1+ CD8+ T cells isolated from VV-treated MC38 tumors were cocultured with MC38 cells in the presence of purified iPDL1 or IgG. IFN-γ+ frequencies of PD-1+ T cells were shown from one of two independent experiments.

[11] = molecular target: T5, PD-L1 (Mus musculus, UniProt Q9EP73); format: in vivo; settings: MC38, untreated distant tumors
T5 construct: from tissue; host or cells: single-cell suspensions of treated and distant MC38 tumours from C57BL/6 mice
T5 sequence (Q9EP73 19-290): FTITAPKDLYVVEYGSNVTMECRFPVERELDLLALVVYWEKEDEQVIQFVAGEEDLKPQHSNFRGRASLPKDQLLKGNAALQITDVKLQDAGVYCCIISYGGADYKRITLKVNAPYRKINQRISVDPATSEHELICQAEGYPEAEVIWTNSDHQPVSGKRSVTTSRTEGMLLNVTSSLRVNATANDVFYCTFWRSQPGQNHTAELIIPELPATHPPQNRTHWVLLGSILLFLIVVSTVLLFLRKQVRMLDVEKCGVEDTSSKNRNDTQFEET

[12] = molecular target: T6, PD-L1 on MC38 tumor cells (Mus musculus, UniProt Q9EP73); format: cell-based
T6 construct: endogenous in cells; host or cells: MC38 (wild type, IFN-γ stimulated, or PD-L1 shRNA knock-down as negative control)
T6 sequence (Q9EP73 19-290): as above

[13] = mutant peptide, read-out: IC50 (mutant)
[14] = wild type peptide, read-out: IC50 (Wild Type)

Molecule	IC50 [1, 13] [nM]	IC50 [1, 14] [nM]	other results
(S/I)MTQHLEPI [Pep7]	78	29	
AALLNSAGL [Pepl, AALLNSA(G/V)L]	3	52	
AQL(P/A)NDVVL [Pep2]	9	100	
ASMTN(R/M)ELM [Pep4]	2	3	
FMACNLLLV [Pep11, FM(A/S)CNLLLV]	79	24	
MAPIDHTAM [Pep3, MAPIDHT(A/T)M]	30	102	
MGGMNRRPI [Pep10, MG(G/V)MNRRPI]	77	841	
SAIRSYQDV [Pep8, SAIRSYQ(D/Y)V]	35	755	
SIIVFNLV [Pep5, SIIVFNL(V/L)]			IC50 [2, 13]: 8 nM; IC50 [2, 14]: 34 nM
SSP(D/Y)SLHYL [Pep6]	211	685	
VSPVNDVDV [Pep9, VSPVND(V/L)DV]	44	18	
anti-PD-L1 antibody control (Biolegend, 124301)			IC50 [3]: 4.53 nM
ihPDL1: soluble human PD-1 (extracellular) - IgG1 Fc fusion protein, human PD-L1 inhibitor, SEQ ID NO:52			T cell activation (IFN-γ level) in MLR [4]: equivalent activity to the commercial anti-PD-L1; concentration that significantly enhanced luc production in the Jurkat effector cells [5]: ≤ 10 ng/mL; binding to PD-L1 (SPR) [6]: specifically bind to PD-L1; blocking the biotin-PD1 binding to PD-L1-coated wells [7]: equivalent activity to the commercial anti-PD-L1; binding of purified ihPDL1 to PD-L1^+ tumor cells [8]: bound to PD-L1^+ tumor cells
iPDL1 (murine soluble PD-1 extracellular domain fused with IgG1 Fc) (Fc fusion, detection used anti-IgG2a-Fc / anti-mouse IgG; also called soluble PD-1-Fc; soluble PD-1-IgG Fc) LEVPNGPWRSLTFYPAWLTVSEGANATFTCSLSNWSEDLMLNWNRLSPSNQTEKQAAFCNGLSQPVQDARFQIIQLPNRHDFHMNILDTRRNDSGIYLCGAISLHPKAKIEESPGAELVVTERILETSTRYPSPSPKPEGRFQPRGPTIKPCPPCKCPAPNLLGGPSVFIFPPKIKDVLMISLSPIVTCVVVDVSEDDPDVQISWFVNNVEVHTAQTQTHREDYNSTLRVVSALPIQHQDWMSGKEFKCKVNNKDLPAPIERTISKPKGSVRAPQVYVLPPPEEEMTKKQVTLTCMVTDFMPEDIYVEWTNNGKTELNYKNTEPVLDSDGSYFMYSKLRVEKKNWVERNSYSCSVVHEGLHNHHTTKSFSRTPGK			IC50 [9]: 5.63 nM
iPDL1: murine soluble PD-1 extracellular domain fused with IgG1 Fc as a PD-L1 inhibitor, SEQ ID NO:2 (protein, Mouse) MWVRQVPWSFTWAVLQLSWQSGWLLEVPNGPWRSLTFYPAWLTVSEGANATFTCSLSNWSEDLMLNWNRLSPSNQTEKQAAFCNGLSQPVQDARFQIIQLPNRHDFHMNILDTRRNDSGIYLCGAISLHPKAKIEESPGAELVVTERILETSTRYPSPSPKPEGRFQPRGPTIKPCPPCKCPAPNLLGGPSVFIFPPKIKDVLMISLSPIVTCVVVDVSEDDPDVQISWFVNNVEVHTAQTQTHREDYNSTLRVVSALPIQHQDWMSGKEFKCKVNNKDLPAPIERTISKPKGSVRAPQVYVLPPPEEEMTKKQVTLTCMVTDFMPEDIYVEWTNNGKTELNYKNTEPVLDSDGSYFMYSKLRVEKKNWVERNSYSCSVVHEGLHNHHTTKSFSRTPGK			IFN-γ+ frequency of PD-1+ CD8+ T cells [10]: higher IFN-γ+ frequency of PD-1+ CD8+ T cells; binding of secreted iPDL1 to PD-L1 on CD45− cells in distant tumors [11]: also bound to PD-L1 on CD45− cells in untreated, distant tumors; binding of purified protein to PD-L1+ tumor cells ([12]; 50 μg/mL, MC38 vs PD-L1-knocked down MC38, anti-IgG Fc staining): able to bind to PD-L1+ tumor cells, but not to PD-L1-knocked down tumor cells; binding of secreted iPDL1 to PD-L1 on tumor cells in cell culture ([12]; MC38 infected with VV-iPDL1/GM at MOI=0.5, anti-IgG Fc staining): bound to PD-L1 on the virus-infected (RFP positive) tumor cells, as well as uninfected (RFP negative) tumor cells

Source: patent US20220064672A1, “ENGINEERED ONCOLYTIC VIRUSES EXPRESSING PD-L1 INHIBITORS AND USES THEREOF” (priority 2020, published 2022)
